Assay results published in publication PMC7472354, “Enhanced Antimicrobial Activity of N-Terminal Derivatives of a Novel Brevinin-1 Peptide from The Skin Secretion of Odorrana schmackeri” (Toxins, 2020).
Converted amounts (≈) assume the structure as drawn. Read-outs that look alike come from different tables or passages of the source. Where a SMILES comes first, the peptide text is derived from it.

Assays:
[1] = tested on: Candida albicans (NCPF 1467); format: cell-based; conditions: for MBC: NCPF 1467, 18 h; for MIC: NCPF 1467, 24 h
Description: (§1) The minimal inhibitory concentrations (MICs) and minimum bactericidal concentrations (MBCs) were evaluated to determine the antimicrobial activity of synthetic peptides. The microorganisms employed in the study are two kinds of Gram-negative bacteria, Escherichia coli (NCTC 10418) and Pseudomonas aeruginosa (ATCC 27853), three kinds of Gram-positive bacteria, Staphylococcus aureus (NCTC 10788), Methicillin-resistant Staphylococcus aureus (MRSA, ATCC 12493) and Enterococcus faecalis (NCTC 12697) and a yeast, Candida albicans (NCPF 1467), as indicated previously. […] The sterilised broth medium was used as the positive control and the microorganism cultured in the medium only was treated as the negative control. […] The MBC results were defined as the lowest bactericidal concentrations of peptide. The antimicrobial activity of peptides was tested by monitoring the absorbance at 550 nm using an ELISA plate reader (Biolise BioTek EL808, Winooski, VT, USA).

[2] = tested on: Enterococcus faecalis (NCTC 12697); format: cell-based; conditions: for MBC: NCTC 12697, 18 h; for MIC: NCTC 12697, 24 h
Description: as §1

[3] = tested on: Escherichia coli (NCTC 10418); format: cell-based; conditions: for MBC: NCTC 10418, 18 h; for MIC: NCTC 10418, 24 h
Description: as §1

[4] = tested on: Methicillin-resistant Staphylococcus aureus (MRSA, ATCC 12493); format: cell-based; conditions: for MBC: ATCC 12493, 18 h; for MIC: ATCC 12493, 24 h
Description: as §1

[5] = tested on: Pseudomonas aeruginosa (ATCC 27853); format: cell-based; conditions: for MBC: ATCC 27853, 18 h; for MIC: ATCC 27853, 24 h
Description: as §1

[6] = tested on: Staphylococcus aureus (NCTC 10788); format: cell-based; conditions: for MBC: NCTC 10788, 18 h; for MIC: NCTC 10788, 24 h
Description: as §1

[7] = tested on: E. coli (NCTC 10418) biofilm; format: cell-based, Escherichia coli; conditions: for MBIC50 / MBIC90: NCTC 10418, 24 h
Description: The anti-biofilm effects of all synthetic peptides were evaluated, which was described in our previous study. The organisms, including S. aureus (NCTC 10788), E. coli (NCTC 10418), MRSA (ATCC 12493), E. faecalis (NCTC 12697) and P. aeruginosa (ATCC 27853), were investigated in this study. Gram-positive bacteria were cultured in the TSB broth and Gram-negative bacteria were cultured in the LB broth. The anti-biofilm effects were determined based on the MBIC and MBEC of all the peptides. For the determination of MBIC, 5 × 10^5 CFU/mL bacterial cultures were incubated with the peptides concentrations (ranging from 1 µM to 512 µM) for 24 h. The sterilised medium and bacterial suspension without any treatment were used as the negative controls and positive controls, respectively. After incubation, wells were rinsed, fixed, stained, washed and dissolved with phosphate buffer saline (PBS), methanol (90%, v/v), crystal violet (0.1%, w/v), sterile deionised water and acetic acid (30%, v/v), respectively. The absorbance of dissolved stain was measured at a 595 nm using a Synergy HT plate reader (Biotech, Minneapolis, MN, USA).
For the MBEC assay, the peptide concentrations were prepared as above. The bacteria were cultured in the 96 well plate for 24–48 h, which allowed the formation of mature biofilm in the plate. Then, the bacterial culture was removed from the plate. The biofilm was further washed to remove the planktonic bacteria using PBS. Then, the fresh broth that contained different peptide concentrations was added in the plate for incubation of 24 h at 37 °C. After incubation, the plate was stained by crystal violet as mentioned above. The definition of MBIC can be given when compared to the negative control group (≥90%, MBIC90; ≥50%, MBIC50). The definition of the MBEC can be given when compared to the negative control group (≥90%, MBEC90; ≥50%, MBEC50).

E. coli = format: cell-based, Escherichia coli; conditions: 24 h
Description: (§2) The minimal inhibitory concentrations (MICs) and minimum bactericidal concentrations (MBCs) were evaluated to determine the antimicrobial activity of synthetic peptides. The microorganisms employed in the study are two kinds of Gram-negative bacteria, Escherichia coli (NCTC 10418) and Pseudomonas aeruginosa (ATCC 27853), three kinds of Gram-positive bacteria, Staphylococcus aureus (NCTC 10788), Methicillin-resistant Staphylococcus aureus (MRSA, ATCC 12493) and Enterococcus faecalis (NCTC 12697) and a yeast, Candida albicans (NCPF 1467), as indicated previously. For antimicrobial assays, 5 × 10^5 CFU/mL of bacterial suspensions were incubated with the concentrations of the peptides (ranging from 1 µM to 512 µM) for 24 h at 37 °C. The sterilised broth medium was used as the positive control and the microorganism cultured in the medium only was treated as the negative control. […] The MBC results were defined as the lowest bactericidal concentrations of peptide. The antimicrobial activity of peptides was tested by monitoring the absorbance at 550 nm using an ELISA plate reader (Biolise BioTek EL808, Winooski, VT, USA).
(§3) The activity of peptides in the different environmental conditions including different concentrations of NaCl (50, 100 and 150 mM) and MgCl2 (0.5, 1 and 2 mM), pH (6, 7 and 8), temperature (50 °C, 75 °C and 100 °C) and 10% fetal bovine serum (FBS) solution, was evaluated using the broth microdilution assay as described in the antimicrobial activity assay. For the stability test of peptides in the presence of salt, pH and serum, these conditions were adjusted in the fresh medium that was further used to dilute the bacteria suspension. The peptides were also dissolved in such broth and mixed with the bacteria suspension in the 96 well plate. For the thermal stability test, the peptides were dissolved in the water and incubated at different temperature for 15 min before dosing in the plate. The sterilised broth with corresponding conditions was used as the positive controls, and the bacteria suspension without any treatment was used as the negative controls.

P. aeruginosa = format: cell-based, Pseudomonas aeruginosa; conditions: 24 h
Description: as §2, §3

horse red blood cells = test: Haemolysis assay and therapeutic index; conditions: 2% horse red blood cells in PBS, 2 h, 37 °C, absorbance 570 nm; best-fitted curve
Description: The haemolytic activity of synthetic peptides was determined using the horse red blood cells that were extracted from the de-fibroblast whole horse blood (TCS Biosciences Ltd. Buckingham, UK). […] Briefly, the red blood cells were harvested and washed using PBS until all broken red blood cells were removed. Then, a 2% cell suspension was prepared using PBS. The peptide concentrations were set as antimicrobial activity assay and mixed with the red blood cells in the microcentrifuge tubes. After a 2 h-incubation at 37 °C, the tubes were centrifuged and the suspension was transferred into a clear 96 well plate. The absorbance of released haemoglobin in the suspension was detected at 570 nm by a plate reader. Besides, the red blood cells treated with PBS and 1% Triton X-100 were used as the negative and positive controls, respectively. […] The therapeutic index (TI) was further determined as below:(1) TI=HC50/product of n MICsn,

SMILES	MBC [1] [µM]	MIC [1] [µM]	MBC [2] [µM]	MIC [2] [µM]	MBC [3] [µM]	MIC [3] [µM]	MBC [4] [µM]	MIC [4] [µM]	MBC [5] [µM]	MIC [5] [µM]	MBC [6] [µM]	MIC [6] [µM]	MBEC50 [7] [µM]	MBEC90 [7] [µM]	MBIC50 [7] [µM]	MBIC90 [7] [µM]	MIC (E. coli; pH 6) [µM]	MIC (E. coli; pH 7) [µM]	MIC (E. coli; pH 8) [µM]	MIC (P. aeruginosa; pH 6) [µM]	other results
CC(C)C[C@H](NC(=O)[C@H](C)NC(=O)[C@H](Cc1c[nH]c2ccccc12)NC(=O)[C@H](CCCCN)NC(=O)[C@H](CC(C)C)NC(=O)[C@@H](N)Cc1ccccc1)C(=O)N[C@@H](CCCCN)C(=O)N[C@H](C(=O)N[C@@H](C)C(=O)N[C@@H](C)C(=O)N[C@@H](CCCCN)C(N)=O)C(C)C [OSd] (H-FLKWALKVAAK-NH2)	32 (≈ 40.8 µg/mL)	16 (≈ 20.4 µg/mL)	64 (≈ 81.5 µg/mL)	32 (≈ 40.8 µg/mL)	32 (≈ 40.8 µg/mL)	32 (≈ 40.8 µg/mL)	32 (≈ 40.8 µg/mL)	32 (≈ 40.8 µg/mL)	64 (≈ 81.5 µg/mL)	64 (≈ 81.5 µg/mL)	32 (≈ 40.8 µg/mL)	16 (≈ 20.4 µg/mL)	> 512	> 512	64	128	64 (≈ 81.5 µg/mL)	64 (≈ 81.5 µg/mL)	64 (≈ 81.5 µg/mL)	128 (≈ 163 µg/mL)	MIC (P. aeruginosa; pH 7): 128 µM (≈ 163 µg/mL); MIC (P. aeruginosa; pH 8): 64 µM (≈ 81.5 µg/mL)
CC(C)C[C@H](NC(=O)[C@H](C)NC(=O)[C@H](Cc1c[nH]c2ccccc12)NC(=O)[C@H](CCCCN)NC(=O)[C@H](CC(C)C)NC(=O)[C@@H](N)Cc1ccccc1)C(=O)N[C@@H](CCCCN)C(=O)N[C@@H](Cc1c[nH]c2ccccc12)C(=O)N[C@@H](C)C(=O)N[C@@H](C)C(=O)N[C@@H](CCCCN)C(N)=O [OSe] (H-FLKWALKWAAK-NH2)	4 (≈ 5.44 µg/mL)	4 (≈ 5.44 µg/mL)	16 (≈ 21.8 µg/mL)	16 (≈ 21.8 µg/mL)	16 (≈ 21.8 µg/mL)	16 (≈ 21.8 µg/mL)	8 (≈ 10.9 µg/mL)	8 (≈ 10.9 µg/mL)	16 (≈ 21.8 µg/mL)	16 (≈ 21.8 µg/mL)	4 (≈ 5.44 µg/mL)	4 (≈ 5.44 µg/mL)	> 512	> 512	16	32	32 (≈ 43.5 µg/mL)	16 (≈ 21.8 µg/mL)	16 (≈ 21.8 µg/mL)	32 (≈ 43.5 µg/mL)	MIC (P. aeruginosa; pH 7): 64 µM (≈ 87.1 µg/mL); MIC (P. aeruginosa; pH 8): 32 µM (≈ 43.5 µg/mL); HC50 (concentration causing 50% haemolysis of the red blood cells) (horse red blood cells): 64.03 µM
CC(C)C[C@H](NC(=O)[C@H](C)NC(=O)[C@H](Cc1c[nH]c2ccccc12)NC(=O)[C@H](CCCCN)NC(=O)[C@@H]1CCCN1C(=O)[C@H](CC(C)C)NC(=O)[C@@H](N)Cc1ccccc1)C(=O)N[C@@H](CCCCN)C(=O)N[C@@H](Cc1c[nH]c2ccccc12)C(=O)N[C@@H](C)C(=O)N[C@@H](C)C(=O)N[C@@H](CCCCN)C(N)=O [OSf] (H-FLPKWALKWAAK-NH2; N-terminus assumed)	16 (≈ 23.3 µg/mL)	8 (≈ 11.7 µg/mL)	64 (≈ 93.3 µg/mL)	32 (≈ 46.7 µg/mL)	16 (≈ 23.3 µg/mL)	8 (≈ 11.7 µg/mL)	64 (≈ 93.3 µg/mL)	16 (≈ 23.3 µg/mL)	64 (≈ 93.3 µg/mL)	64 (≈ 93.3 µg/mL)	16 (≈ 23.3 µg/mL)	8 (≈ 11.7 µg/mL)	> 512	> 512	32	128	128 (≈ 187 µg/mL)	8 (≈ 11.7 µg/mL)	32 (≈ 46.7 µg/mL)	128 (≈ 187 µg/mL)	MIC (P. aeruginosa; pH 7): 256 µM (≈ 373 µg/mL); MIC (P. aeruginosa; pH 8): 64 µM (≈ 93.3 µg/mL); HC50 (concentration causing 50% haemolysis of the red blood cells) (horse red blood cells): 328.3 µM
